Tested on: immobilized GST-tagged bait protein domains
Assay: ProP-PD phage selections (HD2 P8, sublibraries, HD2 P3, HD1 P8) with NGS and confidence level
Format: binding, human
Settings: for HD confidence / HD count proportions / HD mean counts: library HD
[1] = bait CALM1_EF-hand__P0DP23_2_149, library HD2, benchmarking set of validated motif instances, TRUE = motif instance recovered in the ProP-PD selection
[2] = library HD2, bait EPS15_EH__P42566_121_215, best matching peptide
[3] = library HD2, bait EPS15_EH__P42566_121_215, confidence level of best matching peptide (4 High, 2-3 Medium, 1 Low)
[4] = library HD2, bait EPS15_EH__P42566_121_215, whether the validated benchmark motif instance was recovered in the ProP-PD selection (TRUE/FALSE)
[5] = bait PABP-B_PABP__P11940_544_623, HD2 library, confidence level (1-4) of best matching selected peptide
[6] = bait PABP-B_PABP__P11940_544_623, HD2 library, specificity score of best matching selected peptide
[7] = bait PABP-B_PABP__P11940_544_623, HD2 library, whether the validated benchmark motif instance was recovered in the ProP-PD selection (TRUE/FALSE)
[8] = bait SIN3A_PAH__Q96ST3_295_383, HD2 library, whether the validated benchmark motif instance was recovered in the ProP-PD selection (TRUE/FALSE)
[9] = library HD2, bait YAP1_WW_1_P46937_169_207, validated benchmark motif instance, in_library_check TRUE, TRUE/FALSE = instance recovered in ProP-PD selection
[10] = HD2 library, bait TNKS_TANK-peptide-bind__O95271_174_649, known motif instance of the benchmarking set found (TRUE) or not found (FALSE) among selected peptides
[11] = bait ANKRA2_Ank__Q9H9E1_142_313
[12] = bait ANKRA2_Ank__Q9H9E1_142_313, mean normalised NGS counts
[13] = bait ANKRA2_Ank__Q9H9E1_142_313, mean raw NGS counts, all selections
[14] = HD2 library, bait CALM1_EF-hand__P0DP23_2_149, benchmark motif instance, in_library_check FALSE, in_library_coverage 0
[15] = bait PTK2_Focal-AT__Q05397_891_1050, HD2 library, whether the validated benchmark motif instance was recovered in the ProP-PD selection (TRUE/FALSE)
[16] = HD2 library, bait TLN1_PTB__Q9Y490_309_401, known motif instance of the benchmarking set found (TRUE) or not found (FALSE) among selected peptides
[17] = library HD2, bait KLC1_TPR__Q07866_203_497, whether the validated benchmark motif instance was recovered in the ProP-PD selection (TRUE/FALSE)
[18] = bait AP2B1_adaptin__P63010_700_937, library HD2, benchmarking set of validated motif instances, TRUE = motif instance recovered in the ProP-PD selection
[19] = bait KPNA4_Arm (O00629 68-487), HD2 library, benchmark motif instance recovered in the ProP-PD selection (TRUE/FALSE)

LNKYQGFIFDIVTK [SCN5A]
motif_found [1]: FALSE

LNPFLTKSSGDVHLSI
best_specificity [2]: 1 | best_confidence [3]: 4 | motif_found [4]: TRUE

LNPNAEVWGAPVLHLE
best_confidence [5]: 4 | best_specificity [6]: 1 | motif_found [7]: TRUE

LNQDFSGFQLLVDVALKRAAEM
motif_found [8]: FALSE

LPIPGTPPPNYDSLRLQP
motif_found (bait NEDD4_WW_4_P46934_890_928, HD2 library, whether the validated benchmark motif instance was recovered in the ProP-PD selection (TRUE/FALSE)): FALSE | motif_found [9]: FALSE

LPLEFSDDLDVVGDGMQC
motif_found (library HD2, bait WDR5_WD_1234567_P61964_21_334, validated benchmark motif instance, in_library_check TRUE, TRUE/FALSE = instance recovered in ProP-PD selection): FALSE

LPLYTSPSLPNITLGLP,PLPLYTSPSLPNITLGLPATGPSA [HDAC4]
motif_found (bait ANKRA2_Ank__Q9H9E1_142_313, library HD2, benchmarking set of validated motif instances, TRUE = motif instance recovered in the ProP-PD selection): TRUE

LPRTQPDGTSVPGEPA
best_specificity (HD2 library, bait TNKS_TANK-peptide-bind__O95271_174_649, best matching selected peptide): 1 | best_confidence (HD2 library, bait TNKS_TANK-peptide-bind__O95271_174_649, confidence level of best matching selected peptide): 2 | motif_found [10]: TRUE

LQDVQPSPINPFSAFF
best_specificity [2]: 1 | best_confidence [3]: 2 | motif_found [4]: TRUE

LQLPSLDDQVIPARLP
HD confidence [11]: 3 | HD count proportions [12]: 0.001339 | HD mean counts [13]: 12.75

LQQSIAREPSAPSIPTPAYQ
motif_found (library HD2, bait TSG101_UEV__Q99816_1_145, validated benchmark motif instance, in_library_check TRUE, TRUE/FALSE = instance recovered in ProP-PD selection): FALSE

LQYFRDHINDIIKIQAFIRANKARDDYKTLINA [IQGAP1 836-854]
motif_found [14]: FALSE

LRRGQILWFRGLNRIQTQIDVINTFQTGASFKGVLRRQNMGQHLDVKLVPSSSYIKVVKAFHSS [ATP2B4]
motif_found [1]: FALSE

LSELDRLLLELN
motif_found [15]: FALSE

LSKLDVLVLAASYIAH
HD2_nucleus confidence (bait SIN3A_PAH__Q96ST3_295_383, library HD2 P8 nucleus): 4

LSKMQQNGYENPTYKFFEQMQN
motif_found [16]: FALSE

LSLGSAGERGEAEGCPPSREAE
motif_found [10]: FALSE

LSSPLVPGNPFEEPTCINP
motif_found [4]: FALSE

LSVNAPEFYPSGYSSS
best_confidence [5]: 3 | best_specificity [6]: 1 | motif_found [7]: TRUE

LSVSPARWAEEYLEQSEEK
motif_found (bait PEX14_Pex14__O75381_16_84, HD2 library, whether the validated benchmark motif instance was recovered in the ProP-PD selection (TRUE/FALSE)): FALSE

LSWPDLLSDPSIVGSN
HD2-1mM_CaCl confidence (bait CALM1 EF-hand (P0DP23, 2-149), HD2 library selection with 1mM_CaCl, confidence level (4 = High, 2 or 3 = Medium, 1 = Low)): 3 | HD2 confidence (bait CALM1 EF-hand (P0DP23, 2-149), HD2 library selection, confidence level (4 = High, 2 or 3 = Medium, 1 = Low)): 3

LYKEATSTFTNITYRGT-----
motif_found [16]: FALSE

LYNFPQSPPAQYSPMH
HD2_nc confidence (bait CEP55_EABR__Q53EZ4_160_217, HD2 P8 nucleocytoplasmic sublibrary, confidence level (4 = High, 2-3 = Medium, 1 = Low)): 4 | HD2_nc mean counts (bait CEP55_EABR__Q53EZ4_160_217, HD2 P8 nucleocytoplasmic sublibrary, mean NGS counts over replicate selections): 101.3 | HD2_nc count proportions (bait CEP55_EABR__Q53EZ4_160_217, HD2 P8 nucleocytoplasmic sublibrary, mean proportion of NGS counts): 0.001637

LYPTDCPPSYEAVMGL
p3_HD2 confidence (bait NEDD4_WW_4_P46934_890_928, HD2 P3 library, confidence level (4 = High, 2-3 = Medium, 1 = Low)): 3 | p3_HD2 mean counts (bait NEDD4_WW_4_P46934_890_928, HD2 P3 library, mean NGS counts over replicate selections): 285.3 | p3_HD2 count proportions (bait NEDD4_WW_4_P46934_890_928, HD2 P3 library, mean proportion of NGS counts): 0.005597 | HD2_cytoplasm confidence (bait NEDD4_WW_4_P46934_890_928, HD2 P8 cytoplasm sublibrary, confidence level (4 = High, 2-3 = Medium, 1 = Low)): 4

MDDLDALLADLESTTSHIS
motif_found [15]: FALSE

MDVFMKGLSKAKEGVVAAA [SNCA]
motif_found [1]: FALSE

MSARPSLPPLPAKPAG
HD confidence [11]: 2 | HD2 confidence (bait ANKRA2_Ank__Q9H9E1_142_313, library HD2 P8): 2 | HD count proportions [12]: 0.0001907 | HD mean counts [13]: 3.25

MSIETLLEAARFLEWQAQQQ
motif_found [8]: FALSE

MSSLYPSLEDLKVDQA
HD confidence (bait PDCD6IP_Alix-V-domain__Q8WUM4_360_702): 2 | p3_HD2 confidence (bait PDCD6IP_Alix-V-domain__Q8WUM4_360_702, library HD2 P3): 3 | p3_HD2 count proportions (bait PDCD6IP_Alix-V-domain__Q8WUM4_360_702, library HD2 P3, mean normalised NGS counts): 0.4191 | p3_HD2 mean counts (bait PDCD6IP_Alix-V-domain__Q8WUM4_360_702, library HD2 P3, mean raw NGS counts, all selections): 20392.666666666668 | HD2 confidence (bait PDCD6IP_Alix-V-domain__Q8WUM4_360_702, library HD2 P8): 4 | HD2_nc confidence (bait PDCD6IP_Alix-V-domain__Q8WUM4_360_702, library HD2 P8 nucleocytoplasmic): 3 | HD2_nc count proportions (bait PDCD6IP_Alix-V-domain__Q8WUM4_360_702, library HD2 P8 nucleocytoplasmic, mean normalised NGS counts): 0.343 | HD2_nc mean counts (bait PDCD6IP_Alix-V-domain__Q8WUM4_360_702, library HD2 P8 nucleocytoplasmic, mean raw NGS counts, all selections): 24438.333333333332 | HD count proportions (bait PDCD6IP_Alix-V-domain__Q8WUM4_360_702, mean normalised NGS counts): 0.4404 | HD mean counts (bait PDCD6IP_Alix-V-domain__Q8WUM4_360_702, mean raw NGS counts, all selections): 2175.8

NATRQQQLEWDDSTLSY-----
motif_found [17]: FALSE

NDIDEVIIPTAPLYKQILNL [TSG101 319-324]
motif_found (HD2 library, bait TSG101_UEV__Q99816_1_145, benchmark motif instance, in_library_check FALSE, in_library_coverage 0): FALSE

NEEINIASSDSEVEIVGVQEHARC
motif_found (HD2 library, bait SUMO1_SUMO__P63165_1_101, known motif instance of the benchmarking set found (TRUE) or not found (FALSE) among selected peptides): FALSE

NGAEDDDDDEFGEFGGFSEVS [AFTPH]
motif_found [18]: FALSE

NGSSSVNWPPEFRPGEPWKGYPNIDPET
motif_found [7]: FALSE

NHWQKIRTMVNLPVISPFK [ITPKA 165-183]
motif_found [14]: FALSE

NIHNSKAPKKNRLRRKSSTR
motif_found [19]: FALSE

NKKVEVIDLTIDSSSD
best_confidence (bait SUMO1_SUMO__P63165_1_101, HD2 library, confidence level (1-4) of best matching selected peptide): 4 | best_specificity (bait SUMO1_SUMO__P63165_1_101, HD2 library, specificity score of best matching selected peptide): 1 | motif_found (bait SUMO1_SUMO__P63165_1_101, HD2 library, whether the validated benchmark motif instance was recovered in the ProP-PD selection (TRUE/FALSE)): TRUE

NLEEKKRYDREFLLGFQFIFA
motif_found (library HD2, bait EIF4E_eIF4E__P06730_1_217, whether the validated benchmark motif instance was recovered in the ProP-PD selection (TRUE/FALSE)): FALSE

NLNGTIKDDFSEFDNLRTSKKTAE [EPN2]
motif_found [18]: FALSE

NLQLPSLDEQVIPARL
HD confidence [11]: 3 | HD count proportions [12]: 0.0005556 | HD mean counts [13]: 7.75

NMTPYRSPPPYVPP----
motif_found (bait NEDD4_WW_4 (P46934 890-928), HD2 library, benchmark motif instance recovered in the ProP-PD selection (TRUE/FALSE)): FALSE | motif_found [9]: FALSE

NPFLAPGAPATSAPVN
best_specificity [2]: 1 | best_confidence [3]: 3 | motif_found [4]: TRUE

NPNAKEFVPGVKYGNI
best_confidence [5]: 2 | best_specificity [6]: 1 | motif_found [7]: TRUE

NRVAYIEFPPPPPLDADQI
motif_found (library HD2, bait VASP_EVH1__P50552_1_114, validated benchmark motif instance, in_library_check TRUE, TRUE/FALSE = instance recovered in ProP-PD selection): FALSE

NSVTSTNLEWDDSAIAPSSEDYDF
motif_found [17]: FALSE

NTPSGKSDDDFADFHSSKFSS [SYNRG]
motif_found [18]: FALSE

NVQRLLEAAEFLERRE
best_confidence (bait SIN3A_PAH__Q96ST3_295_383, HD2 library, confidence level (1-4) of best matching selected peptide): 3 | best_specificity (bait SIN3A_PAH__Q96ST3_295_383, HD2 library, specificity score of best matching selected peptide): 0.6 | motif_found [8]: TRUE

NYCPPVKRERTSSL
motif_found [19]: FALSE

NYPFTWNTPSAPPGYNIAVK
motif_found (HD2 library, bait TSG101_UEV__Q99816_1_145, known motif instance of the benchmarking set found (TRUE) or not found (FALSE) among selected peptides): FALSE

PAAAAANELNNNLPGGAPAA
motif_found (bait SPSB1_SPRY__Q96BD6_30_231, HD2 library, whether the validated benchmark motif instance was recovered in the ProP-PD selection (TRUE/FALSE)): FALSE

— PMC8769072, “Proteome‐scale mapping of binding sites in the unstructured regions of the human proteome” (Molecular Systems Biology, 2022)
